# Experimental data published in paper PMC4786250, “Effects of Intraosseous Tibial vs. Intravenous Vasopressin in a Hypovolemic Cardiac Arrest Model” (Western Journal of Emergency Medicine, 2016).
# Tests used:
# [1] = Vasopressin concentration in blood samples (HPLC-MS/MS) after tibial IO or IV administration in a hypovolemic cardiac arrest model; assay type: in vivo, Yorkshire swine; settings: 40 units; for Cmax / Tmax / level at 1 min: Yorkshire, serum; for Cmax / Tmax: pig, mean ± standard deviation; for Cmax: during CPR, male swine 60-80 kg, 31% blood volume hemorrhage, ventricular fibrillation, femoral artery samples 0.5-4 min, HPLC-MS/MS; for Tmax / level at 1 min: male; for Tmax: SD; for level at 1 min: 60 seconds after injection, mean ± standard error, SEM
# Description: (§1) The study was a prospective, between-subjects, experimental design. The Institutional Animal Care and Use Committee (IACUC) approved the research protocol, and the animals received care in compliance with the Animal Welfare Act. Twenty-eight Yorkshire swine were randomly assigned by a computer generated random number program to one of four groups: IV + defibrillation (n=7), IO tibia + defibrillation (n=7), CPR + defibrillation (n=7), and a control group that received just CPR (n=7). Two additional swine were added in the each of the IV and IO groups for model development. These two swine meet the criteria for inclusion in the study, and no changes were necessary in the protocol. Therefore, the pigs were included in both groups to make a total of eight in both the tibial IO and IV groups. However, one pig in the IO group was ill and was deleted from the study making a total of seven in that group.
# (§2) In addition, their blood volume is the same as humans: 70ml per kg of body weight.[18],[19] To avoid any variability in subjects, we purchased the swine from the same vendor and acquired pigs that were approximately the same size. Male swine were used to avoid any potential hormonal effects. Subjects weighing between 60 to 80kg were used as this range represents the average weight of an adult, human.[20] […] All subjects received no food after midnight the evening before the study but were allowed fluids as desired until the experiment
# (§3) Each subject received pre-emptive analgesia with Telazol (4–8mg/kg). They were then sedated, anesthetized, intubated, and placed on mechanical ventilation. A standard Narkomed® anesthesia machine (Dräger, Telford, PA) was used to deliver isoflurane at a maintenance dose (0.5–2%) and ventilation at 8–10mL/kg at 10–14 breaths per minute. A peripheral IV was started on all subjects using an 18- or 20-gauge catheter in the auricular vein. […] Hemodynamics were evaluated continuously that included the following: electrocardiogram, arterial blood pressure via a left carotid artery catheter, mean arterial pressure, oxygen saturation, end-tidal carbon dioxide, and temperature. A forced-air warming blanket was used to sustain rectal temperature greater than 36 degrees Celsius. A Vigileo™ (Edwards Lifesciences, Irvine, CA) was used to obtain cardiac output and stroke volume measurements via the arterial line. The femoral artery was cannulated for the collection of blood samples and for the achievement of controlled hemorrhage.
# (§4) For swine in the tibial IO group, we inserted an EZ-IO® device (Vidacare, San Antonio, TX) in the proximal, medial tibia. Placement was confirmed by aspiration of blood and easy irrigation with 10mL of 0.9% normal saline (NS). Patency was maintained by administering Lactated Ringer’s solution with a pressure bag at 300mmHg. Subjects were allowed to stabilize for 15 minutes; we then exsanguinated 31% of their blood volume from the femoral artery catheter into a canister. This represented a Class III hemorrhage. Hemorrhage was accomplished by allowing blood to drain by gravity over approximately 15 minutes. To ensure the amount exsanguinated was correct, the investigators used a scale that was accurate and precise within 0.5%.
# (§5) In response to hypovolemic shock in accordance with Tactical Combat Casualty Care guidelines, we administered 500mL of 5% albumin to all subjects over 10 minutes.[22] Five minutes after the administration of albumin, the investigators placed the pigs in cardiac arrest, defined as a nonperfusing arrhythmia. […] The needles were attached to alligator clamps. The clamps were attached to three 9-volt batteries that were connected in a series to deliver an electrical current, thereby inducing nonperfusing ventricular fibrillation. We were able to establish ventricular fibrillation usually within 10 seconds. In some cases, we had to reposition the needles resulting in 100% being placed into ventricular fibrillation.
# (§6) The pigs were allowed to remain in arrest for two minutes. […]
# [2] = system: hypovolemic cardiac arrest model; experiment: Return of spontaneous circulation (ROSC) in a hypovolemic cardiac arrest model; assay type: in vivo, Yorkshire swine; settings: for time to ROSC: 40 units, mean ± standard deviation, SD; for Number achieving ROSC / Number not achieving ROSC: 40 units + CPR + defibrillation, up to 20 min
# Description: as §1, §2, §3, §4, §5, §6
structure (smiles),measurement,setting,value
NC(=O)CC[C@@H]1NC(=O)[C@H](Cc2ccccc2)NC(=O)[C@H](Cc2ccc(O)cc2)NC(=O)[C@@H](N)CSSC[C@@H](C(=O)N2CCC[C@H]2C(=O)N[C@@H](CCCN=C(N)N)C(=O)NCC(N)=O)NC(=O)[C@H](CC(N)=O)NC1=O [vasopressin],Cmax,"[1]; IV (auricular vein) push, n=8",106 ng/mL
same,Cmax,"[1]; tibial IO push, n=7",58.7 ng/mL
same,Tmax,"[1]; IV, n=8",1.43 min
same,Tmax,"[1]; tibial IO, n=7",2.63 min
same,level at 1 min,"[1]; IV, n=8",76.8 ng/mL
same,level at 1 min,"[1]; tibial IO, n=7",23.6 ng/mL
same,Cmax concentration of the IO group compared to the IV group,[1]; tibial IO relative to IV,55%
same,time to ROSC,"[2]; IO group (line ""IO vs. CPR + defibrillation"")",493 ± 226 s
same,Odds of ROSC,[2]; IO vs. CPR + defibrillation,15
same,Odds of ROSC,[2]; IO vs. CPR only,65
same,time to ROSC,"[2]; IV group (line ""IV vs. IO"")",559 ± 231 s
same,Odds of ROSC,[2]; IV vs. CPR + defibrillation,17.5
same,Odds of ROSC,[2]; IV vs. CPR only,75
same,Number achieving ROSC,"[2]; IV, N=8",7
same,Number not achieving ROSC,"[2]; IV, N=8",1
same,Number achieving ROSC,"[2]; tibial IO, N=7",6
same,Number not achieving ROSC,"[2]; tibial IO, N=7",1
